Assay results: patent US20250340557A1, “PYRIMIDINE DERIVATIVE” (ASKA PHARMACEUTICAL CO., LTD., priority 2022, published 2025)
pIC50: −log10 of the molar value.

Molecular target: T1, human mPGES-1 (Homo sapiens, UniProt O14684)
T1 construct: made in house; host or cells: COS-1 cells (transient transfection; microsomal fraction used as enzyme)
T1 sequence (O14684 1-152): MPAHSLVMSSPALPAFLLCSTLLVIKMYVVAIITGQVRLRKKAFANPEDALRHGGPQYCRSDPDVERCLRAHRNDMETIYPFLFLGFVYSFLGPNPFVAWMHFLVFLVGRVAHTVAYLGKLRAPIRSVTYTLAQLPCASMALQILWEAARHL
Assay: Test for mPGES-1 inhibitory activity (microsomal enzyme, PGE2 EIA)
Format: biochemical
Conditions: microsomes of COS-1 cells transfected with human mPGES-1 cDNA; PGH2 1 μM; 4° C., 4 minutes; PGE2 by EIA; read-out: h mPGES1 IC50
How it was run: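 IC50 values were derived from EIA-quantified PGE2 after a 4 min, 4 °C reaction with PGH2 at 1 μM final, stopped with ferric chloride/citric acid. Beforehand, compound (2% DMSO final) sat 15 min at 4 °C with human mPGES-1 microsomes from transiently transfected COS-1 cells. Buffer was sodium phosphate pH 7.2 containing 2.5 mM reduced glutathione and 1 mM EDTA.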

Point of comparison: `CCc1cc(=O)[nH]c(-c2c(C(F)(F)F)ccc(CNC(=O)[C@H]3C[C@H](OCc4cc(Cl)ccc4F)C3)c2F)n1` [Example 209, trans-3-[(5-chloro-2-fluorobenzyl)oxy]-N-[3-(4-ethyl-6-oxo-1,6-dihydropyrimidin-2-yl)-2-fluoro-4-(trifluoromethyl)benzyl]cyclobutane-1-carboxamide], pIC50 8.06. Against it:
- Cc1cc(=O)[nH]c(-c2c(C(F)(F)F)ccc(CNC(=O)[C@H]3C[C@H](OCc4ccc(F)cc4Cl)C3)c2F)n1 [Example 190, trans-3-[(2-chloro-4-fluorobenzyl)oxy]-N-[2-fluoro-3-(4-methyl-6-oxo-1,6-dihydropyrimidin-2-yl)-4-(trifluoromethyl)benzyl]cyclobutane-1-carboxamide] — higher, > 9.00
- Cc1cc(=O)[nH]c(-c2c(C(F)(F)F)ccc(CNC(=O)[C@H]3C[C@H](OCc4cccc(Cl)c4F)C3)c2F)n1 [Example 191, trans-3-[(3-chloro-2-fluorobenzyl)oxy]-N-[2-fluoro-3-(4-methyl-6-oxo-1,6-dihydropyrimidin-2-yl)-4-(trifluoromethyl)benzyl]cyclobutane-1-carboxamide] — higher, > 9.00
- Cc1cc(=O)[nH]c(-c2c(C(F)(F)F)ccc(CNC(=O)[C@H]3C[C@H](OCc4cc(Cl)ccc4F)C3)c2F)n1 [Example 192, trans-3-[(5-chloro-2-fluorobenzyl)oxy]-N-[2-fluoro-3-(4-methyl-6-oxo-1,6-dihydropyrimidin-2-yl)-4-(trifluoromethyl)benzyl]cyclobutane-1-carboxamide] — higher, > 9.00
- Cc1cc(=O)[nH]c(-c2c(C(F)(F)F)ccc(CNC(=O)[C@H]3C[C@H](OCc4ccc(F)c(Cl)c4)C3)c2F)n1 [Example 193, trans-3-[(3-chloro-4-fluorobenzyl)oxy]-N-[2-fluoro-3-(4-methyl-6-oxo-1,6-dihydropyrimidin-2-yl)-4-(trifluoromethyl)benzyl]cyclobutane-1-carboxamide] — higher, > 9.00
- Cc1cc(=O)[nH]c(-c2c(C(F)(F)F)ccc(CNC(=O)[C@H]3C[C@H](OCc4cc(F)cc(Cl)c4)C3)c2F)n1 [Example 194, trans-3-[(3-chloro-5-fluorobenzyl)oxy]-N-[2-fluoro-3-(4-methyl-6-oxo-1,6-dihydropyrimidin-2-yl)-4-(trifluoromethyl)benzyl]cyclobutane-1-carboxamide] — 0.38 log units higher, 8.44
- CCc1cc(=O)[nH]c(-c2c(C(F)(F)F)ccc(CNC(=O)[C@H]3C[C@H](OCc4ccccc4Cl)C3)c2F)n1 [Example 195, trans-3-[(2-chlorobenzyl)oxy]-N-[3-(4-ethyl-6-oxo-1,6-dihydropyrimidin-2-yl)-2-fluoro-4-(trifluoromethyl)benzyl]cyclobutane-1-carboxamide] — higher, > 9.00
- CCc1cc(=O)[nH]c(-c2c(C(F)(F)F)ccc(CNC(=O)[C@H]3C[C@H](OCc4cccc(Cl)c4)C3)c2F)n1 [Example 196, trans-3-[(3-chlorobenzyl)oxy]-N-[3-(4-ethyl-6-oxo-1,6-dihydropyrimidin-2-yl)-2-fluoro-4-(trifluoromethyl)benzyl]cyclobutane-1-carboxamide] — higher, > 9.00
- CCc1cc(=O)[nH]c(-c2c(C(F)(F)F)ccc(CNC(=O)[C@H]3C[C@H](OCc4ccc(Cl)cc4)C3)c2F)n1 [Example 197, trans-3-[(4-chlorobenzyl)oxy]-N-[3-(4-ethyl-6-oxo-1,6-dihydropyrimidin-2-yl)-2-fluoro-4-(trifluoromethyl)benzyl]cyclobutane-1-carboxamide] — 0.37 log units higher, 8.43
- CCc1cc(=O)[nH]c(-c2c(C(F)(F)F)ccc(CNC(=O)[C@H]3C[C@H](OCc4ccccc4C(F)(F)F)C3)c2F)n1 [Example 198, trans-N-[3-(4-ethyl-6-oxo-1,6-dihydropyrimidin-2-yl)-2-fluoro-4-(trifluoromethyl)benzyl]-3-{[2-(trifluoromethyl)benzyl]oxy}cyclobutane-1-carboxamide] — 0.79 log units higher, 8.85
- CCc1cc(=O)[nH]c(-c2c(C(F)(F)F)ccc(CNC(=O)[C@H]3C[C@H](OCc4cccc(C(F)(F)F)c4)C3)c2F)n1 [Example 199, trans-N-[3-(4-ethyl-6-oxo-1,6-dihydropyrimidin-2-yl)-2-fluoro-4-(trifluoromethyl)benzyl]-3-{[3-(trifluoromethyl)benzyl]oxy}cyclobutane-1-carboxamide] — 0.90 log units higher, 8.96
- CCc1cc(=O)[nH]c(-c2c(C(F)(F)F)ccc(CNC(=O)[C@H]3C[C@H](OCc4ccc(C(F)(F)F)cc4)C3)c2F)n1 [Example 200, trans-N-[3-(4-ethyl-6-oxo-1,6-dihydropyrimidin-2-yl)-2-fluoro-4-(trifluoromethyl)benzyl]-3-{[4-(trifluoromethyl)benzyl]oxy}cyclobutane-1-carboxamide] — within 0.2 log units, 8.19
- CCc1cc(=O)[nH]c(-c2c(C(F)(F)F)ccc(CNC(=O)[C@H]3C[C@H](OCc4ccc(F)cc4F)C3)c2F)n1 [Example 201, trans-3-[(2,4-difluorobenzyl)oxy]-N-[3-(4-ethyl-6-oxo-1,6-dihydropyrimidin-2-yl)-2-fluoro-4-(trifluoromethyl)benzyl]cyclobutane-1-carboxamide] — higher, > 9.00
- CCc1cc(=O)[nH]c(-c2c(C(F)(F)F)ccc(CNC(=O)[C@H]3C[C@H](OCc4ccc(Cl)cc4F)C3)c2F)n1 [Example 202, trans-3-[(4-chloro-2-fluorobenzyl)oxy]-N-[3-(4-ethyl-6-oxo-1,6-dihydropyrimidin-2-yl)-2-fluoro-4-(trifluoromethyl)benzyl]cyclobutane-1-carboxamide] — higher, > 9.00
- CCc1cc(=O)[nH]c(-c2c(C(F)(F)F)ccc(CNC(=O)[C@H]3C[C@H](OCc4ccc(F)c(F)c4)C3)c2F)n1 [Example 203, trans-3-[(3,4-difluorobenzyl)oxy]-N-[3-(4-ethyl-6-oxo-1,6-dihydropyrimidin-2-yl)-2-fluoro-4-(trifluoromethyl)benzyl]cyclobutane-1-carboxamide] — higher, > 9.00
- CCc1cc(=O)[nH]c(-c2c(C(F)(F)F)ccc(CNC(=O)[C@H]3C[C@H](OCc4cc(F)cc(F)c4)C3)c2F)n1 [Example 204, trans-3-[(3,5-difluorobenzyl)oxy]-N-[3-(4-ethyl-6-oxo-1,6-dihydropyrimidin-2-yl)-2-fluoro-4-(trifluoromethyl)benzyl]cyclobutane-1-carboxamide] — within 0.2 log units, 7.89
- CCc1cc(=O)[nH]c(-c2c(C(F)(F)F)ccc(CNC(=O)[C@H]3C[C@H](OCc4cccc(F)c4)C3)c2F)n1 [Example 205, trans-N-[3-(4-ethyl-6-oxo-1,6-dihydropyrimidin-2-yl)-2-fluoro-4-(trifluoromethyl)benzyl]-3-[(3-fluorobenzyl)oxy]cyclobutane-1-carboxamide] — 0.21 log units lower, 7.85
- CCc1cc(=O)[nH]c(-c2c(C(F)(F)F)ccc(CNC(=O)[C@H]3C[C@H](OCc4cccc(F)c4F)C3)c2F)n1 [Example 206, trans-3-[(2,3-difluorobenzyl)oxy]-N-[3-(4-ethyl-6-oxo-1,6-dihydropyrimidin-2-yl)-2-fluoro-4-(trifluoromethyl)benzyl]cyclobutane-1-carboxamide] — 0.24 log units lower, 7.82
- CCc1cc(=O)[nH]c(-c2c(C(F)(F)F)ccc(CNC(=O)[C@H]3C[C@H](OCc4ccc(F)cc4Cl)C3)c2F)n1 [Example 207, trans-3-[(2-chloro-4-fluorobenzyl)oxy]-N-[3-(4-ethyl-6-oxo-1,6-dihydropyrimidin-2-yl)-2-fluoro-4-(trifluoromethyl)benzyl]cyclobutane-1-carboxamide] — within 0.2 log units, 8.05
- CCc1cc(=O)[nH]c(-c2c(C(F)(F)F)ccc(CNC(=O)[C@H]3C[C@H](OCc4cccc(Cl)c4F)C3)c2F)n1 [Example 208, trans-3-[(3-chloro-2-fluorobenzyl)oxy]-N-[3-(4-ethyl-6-oxo-1,6-dihydropyrimidin-2-yl)-2-fluoro-4-(trifluoromethyl)benzyl]cyclobutane-1-carboxamide] — the same, 8.06
- CCc1cc(=O)[nH]c(-c2c(C(F)(F)F)ccc(CNC(=O)[C@H]3C[C@H](OCc4ccc(F)c(Cl)c4)C3)c2F)n1 [Example 210, trans-3-[(3-chloro-4-fluorobenzyl)oxy]-N-[3-(4-ethyl-6-oxo-1,6-dihydropyrimidin-2-yl)-2-fluoro-4-(trifluoromethyl)benzyl]cyclobutane-1-carboxamide] — within 0.2 log units, 8.10
- CCc1cc(=O)[nH]c(-c2c(C(F)(F)F)ccc(CNC(=O)[C@H]3C[C@H](OCc4cc(F)cc(Cl)c4)C3)c2F)n1 [Example 211, trans-3-[(3-chloro-5-fluorobenzyl)oxy]-N-[3-(4-ethyl-6-oxo-1,6-dihydropyrimidin-2-yl)-2-fluoro-4-(trifluoromethyl)benzyl]cyclobutane-1-carboxamide] — within 0.2 log units, 8.03
- Cc1nc(-c2c(C(F)(F)F)ccc(CNC(=O)[C@H]3C[C@H](OCc4ccccc4Cl)C3)c2F)[nH]c(=O)c1F [Example 212, trans-3-[(2-chlorobenzyl)oxy]-N-[2-fluoro-3-(5-fluoro-4-methyl-6-oxo-1,6-dihydropyrimidin-2-yl)-4-(trifluoromethyl)benzyl]cyclobutane-1-carboxamide] — higher, > 9.00
- Cc1nc(-c2c(C(F)(F)F)ccc(CNC(=O)[C@H]3C[C@H](OCc4cccc(Cl)c4)C3)c2F)[nH]c(=O)c1F [Example 213, trans-3-[(3-chlorobenzyl)oxy]-N-[2-fluoro-3-(5-fluoro-4-methyl-6-oxo-1,6-dihydropyrimidin-2-yl)-4-(trifluoromethyl)benzyl]cyclobutane-1-carboxamide] — within 0.2 log units, 7.96
- Cc1nc(-c2c(C(F)(F)F)ccc(CNC(=O)[C@H]3C[C@H](OCc4ccc(Cl)cc4)C3)c2F)[nH]c(=O)c1F [Example 214, trans-3-[(4-chlorobenzyl)oxy]-N-[2-fluoro-3-(5-fluoro-4-methyl-6-oxo-1,6-dihydropyrimidin-2-yl)-4-(trifluoromethyl)benzyl]cyclobutane-1-carboxamide] — within 0.2 log units, 8.07
